Data reported in publication PMC6487070, “Molecular transport through primary human small intestinal monolayers by culture on a collagen scaffold with a gradient of chemical cross-linking” (Journal of Biological Engineering, 2019).
Where two headings read alike, the source gives them in different places.

Experiments:
Assay type in all cases: in vitro ADME
[1] = system: P-gp; assay: Bidirectional transport of digoxin across monolayers with and without zosuquidar; conditions: human, n = 3, read-out: efflux ratio Papp(B-L)/Papp(L-B)
Description: (§1) All transport assays were performed by adding LY ([…]) and the drug to the luminal or basal reservoirs of the monolayer (n = 3). Samples were collected after 3 h. LY was added to ensure that monolayer integrity remained intact throughout the assay. Additionally, TEER was measured before and after the assay to further verify that monolayer integrity remained constant throughout the assay. Monolayers with a TEER > 90 Ω cm^2 or 300 Ω cm^2 were used for the gradient cross-linked scaffold and conventional scaffold, respectively. […] Zosuquidar and Ko143 were added to inhibit digoxin transport and prazosin transport, respectively, 2.5 h after addition of the substrate. Samples were collected 30 min after inhibitor addition for a totally assay time of 3 h.
The concentration of the drug in the collected sample was determined using HPLC-triple quadrupole mass spectrometry (LC-MS/MS, PE Sciex API 3000, AB Sciex) with multiple reaction monitoring (MRM). A C-18 analytical column with a linear gradient from 100% water with 1% formic acid to 80% acetonitrile with 1% formic acid over 8 min (0.3 mL/min) was used for the separation. […] Digitoxin was used as an internal standard for digoxin samples. Doxasozin was used an internal standard for prazosin samples. All internal standards were added to samples just prior to LC-MS/MS analysis. […] Sample concentrations were quantified using the standard curve and normalized to the signal of the appropriate internal standard. The drug apparent permeability was calculated according to the following equation: Papp = (V/(A x Ci)) x (Cf/T) where V is the volume of the basal chamber (mL), A is the area of epithelial layer (cm^2), Ci is the initial concentration of the molecule (nM), Cf is the final concentration of the drug, and T is the assay time (s). The average Papp with a single standard deviation is shown (average ± SD). The efflux ratio was calculated according to the following equation: Efflux Ratio = Papp(B-L)/Papp(L-B).

[2] = target: T1, BCRP (Homo sapiens, UniProt Q9UNQ0); assay: Bidirectional transport of prazosin across monolayers with and without Ko143; conditions: gradient cross-linked scaffold
T1 construct: endogenous in cells; host or cells: primary human small intestinal epithelial cell monolayers on a gradient cross-linked or conventional collagen scaffold
T1 sequence (Q9UNQ0 1-655): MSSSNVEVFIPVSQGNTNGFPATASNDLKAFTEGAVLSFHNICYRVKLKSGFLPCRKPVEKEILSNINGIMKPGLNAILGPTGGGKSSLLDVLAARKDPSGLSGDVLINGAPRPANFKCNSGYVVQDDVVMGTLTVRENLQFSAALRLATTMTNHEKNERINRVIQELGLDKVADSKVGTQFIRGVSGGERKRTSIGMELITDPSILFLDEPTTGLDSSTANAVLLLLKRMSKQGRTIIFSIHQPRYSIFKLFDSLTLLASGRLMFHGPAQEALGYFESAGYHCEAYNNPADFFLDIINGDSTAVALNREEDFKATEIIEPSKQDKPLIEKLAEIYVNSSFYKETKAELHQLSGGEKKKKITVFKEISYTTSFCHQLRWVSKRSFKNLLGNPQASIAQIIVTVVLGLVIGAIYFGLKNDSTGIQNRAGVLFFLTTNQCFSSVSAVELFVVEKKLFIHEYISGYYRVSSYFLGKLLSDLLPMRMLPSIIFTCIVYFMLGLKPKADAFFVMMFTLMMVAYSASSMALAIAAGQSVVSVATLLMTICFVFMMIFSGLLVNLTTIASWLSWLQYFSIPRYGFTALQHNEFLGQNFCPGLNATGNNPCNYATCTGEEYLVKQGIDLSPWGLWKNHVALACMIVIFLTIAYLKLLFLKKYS
Description: as §1, with “Samples were collected 30 min after inhibitor addition for a totally assay time of 3 h.” left out
The concentration of the drug in the collected sample was determined using HPLC-triple quadrupole mass spectrometry (LC-MS/MS, PE Sciex API 3000, AB Sciex) with multiple reaction monitoring (MRM). […] Sample concentrations were quantified using the standard curve and normalized to the signal of the appropriate internal standard. The drug apparent permeability was calculated according to the following equation: Papp = (V/(A x Ci)) x (Cf/T) where V is the volume of the basal chamber (mL), A is the area of epithelial layer (cm^2), Ci is the initial concentration of the molecule (nM), Cf is the final concentration of the drug, and T is the assay time (s). […]

[3] = system: primary human small intestinal epithelial monolayers; assay: Monolayer integrity: permeability of LY and fluorescein-dextran through small intestinal epithelial monolayers; conditions: monolayers on gradient cross-linked scaffold and on conventional scaffold; luminal to basal, 3 h; n = 3
Description: Neither LY nor fluorescein-dextran are transported by the intestinal epithelium. The TEER was measured using an EVOM^2 epithelial Volt/Ohm meter (World Precision Instruments, Sarasota, FL). The raw resistance measurements of the monolayers were subtracted from that of the average resistance (n = 3) of the collagen layer without cells and normalized by multiplying the cell culture area of the well to provide a TEER in units of Ω cm^2 [48]. The average TEER (n = 3) with a single standard deviation (SD) is shown (average ± SD). […] The amount of LY (ex: 428 nm, em: 520 nm) and fluorescein-dextran (ex: 490 nm, em: 520 nm) in the basal side was determined by measuring their fluorescence in a microplate reader (Spectramax M5, Molecular Devices Corporation, San Jose, CA). The luminal-to-basal apparent permeability (Papp) were calculated according to the following equation: […] The average Papp with a single standard deviation is shown (average ± SD).

C[C@H]1O[C@@H](O[C@H]2[C@@H](O)C[C@H](O[C@H]3[C@@H](O)C[C@H](O[C@H]4CC[C@@]5(C)[C@H](CC[C@@H]6[C@@H]5C[C@@H](O)[C@]5(C)[C@@H](C7=CC(=O)OC7)CC[C@]65O)C4)O[C@@H]3C)O[C@@H]2C)C[C@H](O)[C@@H]1O [digoxin]
efflux ratio at 3 h ([1]; conventional scaffold, no inhibitor): 2.3
efflux ratio at 3 h ([1]; gradient cross-linked scaffold, no inhibitor): 2.7
efflux ratio at 3 h ([1]; with zosuquidar (concentration not stated), conventional scaffold, in the presence of P-gp inhibitor zosuquidar): 1.4
efflux ratio at 3 h ([1]; with zosuquidar (concentration not stated), gradient cross-linked scaffold, in the presence of P-gp inhibitor zosuquidar): 1.4

COc1cc2nc(N3CCN(C(=O)c4ccco4)CC3)nc(N)c2cc1OC [prazosin]
efflux ratio at 3 h ([2]; no inhibitor, read-out: efflux ratio Papp(B-L)/Papp(L-B)): 6.5
efflux ratio at 3 h ([2]; with Ko143 (concentration not stated), with BCRP inhibitor Ko143, read-out: efflux ratio Papp(B-L)/Papp(L-B)): 1.7

Lucifer yellow [LY]
permeability through confluent, differentiated monolayers [3]: low
